Measured values published in patent publication US20240245666A1, “DOSING REGIMENS” (Novartis AG, priority 2021, published 2024).
Values joined by “and” are separate entries in the source; they are usually repeats but may differ in a detail not shown here. Equal values may be shown once. Read-outs that look alike come from different tables or passages of the source.

Experiments:
[1] = Phase I study, DDI study group: asciminib with or without imatinib at steady state under low-fat meal conditions (PK and safety); conditions: imatinib 400 mg qd steady state alone (Day 12)
[2] = Phase I study, FE study group: asciminib under fasted, low-fat meal and high-fat meal conditions (PK and safety); conditions: for asciminib AUCinf, Gmean / asciminib AUCinf, Median / asciminib AUCinf, adjusted Gmean / asciminib AUClast, Gmean / asciminib AUClast, Median / asciminib AUClast, adjusted Gmean / asciminib Cmax, Gmean / asciminib Cmax, Median / asciminib Cmax, Range / asciminib Cmax, adjusted Gmean / asciminib T1/2, Range / asciminib Tmax, Range / reduction in asciminib exposure (AUCinf; AUCinf and AUClast) compared with fasted conditions / asciminib Tmax, Median: single 40 mg;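 also: healthy volunteers, open-label single-center study, PK parameters from individual plasma concentration-time profiles by non-compartmental analysis, 7-day washout between treatment periods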
[3] = single agent, patients with CML; cited from earlier work
clinical [4] = conditions: human, plasma, oral, 40 mg
clinical [5] = conditions: human, in vivo, 40 mg
[6] = In vitro flux study: dissolution and permeation of asciminib film-coated tablets through an artificial lipid membrane; assay type: in vitro ADME; conditions: 2×20 mg film-coated tablets; for flux rate (permeation through an artificial lipid membrane): 37° C.
Experimental: The donor compartment of a United States Pharmacopeia, Method II (USP II) dissolution apparatus (Distek corporation; New Jersey, United States) was filled with 900 mL maleate buffer containing either low concentrations of bile salts (imitating fasted conditions; Fasted State Simulated Intestinal Fluid [FaSSIF]; 3 mM taurocholate/taurodeoxycholate, 0.2 mM phospholipids/lysophospholipids, pH 5.8), high concentrations of bile salts (imitating fed intestinal conditions; Fed State Simulated Intestinal Fluid [FeSSIF]; 10 mM taurocholate/taurodeoxycholate, 2 mM phospholipids/lysophospholipids, 0.8/5.0 mM oleate/glycerol monoleate, pH 6.0), or no bile salts (control; pH 6.5). […] Two replicates per condition were performed.

[7] = initial asciminib tablet formulations, cited from earlier work
[8] = control buffer, no bile salts (pH 6.5)
[9] = fasted state buffer (FaSSIF, pH 5.8)
[10] = fed state buffer (FeSSIF, pH 6.0)

## Cc1ccc(NC(=O)c2ccc(CN3CCN(C)CC3)cc2)cc1Nc1nccc(-c2cccnc2)n1 [imatinib]
[1]
  imatinib AUC0-24h, Gmean: 33,600 ng×h/mL
  imatinib AUClast, Gmean: 33,600 ng×h/mL

## O=C(Nc1ccc(OC(F)(F)Cl)cc1)c1cnc(N2CC[C@@H](O)C2)c(-c2ccn[nH]2)c1 [asciminib, N-[4-(Chlorodifluoromethoxy)phenyl]-6-[(3R)-3-hydroxypyrrolidin-1-yl]-5-(1H-pyrazol-5-yl)pyridine-3-carboxamide]
[2]; FE group, 11 of 24 participants
  participants with at least 1 AE: 45.8%
[2]; FE group, each n=2
  participants with oropharyngeal pain and rhinitis (each): 8.3%
[2]; fasted, n=24
  asciminib AUCinf, Gmean: 5830 ng·h/mL
  asciminib AUCinf, Median: 5890 ng·h/mL
  asciminib AUCinf, adjusted Gmean: 5830 ng·h/mL
  asciminib AUClast, Gmean: 5730 ng·h/mL
  asciminib AUClast, Median: 5820 ng·h/mL
  asciminib AUClast, adjusted Gmean: 5730 ng·h/mL
  asciminib Cmax, Gmean: 550 ng/mL
  asciminib Cmax, Median: 572 ng/mL
  asciminib Cmax, Range: 280 to 1050 ng/mL
  asciminib Cmax, adjusted Gmean: 550 ng/mL
  asciminib T1/2, Range: 9.18 to 19.1 h
  asciminib Tmax, Range: 1.00 to 5.00 h
[2]; high-fat meal
  reduction in asciminib exposure (AUCinf; AUCinf and AUClast) compared with fasted conditions: 62.3% and 62-63%
[2]; high-fat meal, n=24
  asciminib AUCinf, Gmean: 2200 ng·h/mL
  asciminib AUCinf, Median: 2040 ng·h/mL
  asciminib AUCinf, adjusted Gmean: 2200 ng·h/mL
  asciminib AUClast, Gmean: 2130 ng·h/mL
  asciminib AUClast, Median: 1960 ng·h/mL
  asciminib AUClast, adjusted Gmean: 2130 ng·h/mL
  asciminib Cmax, Gmean: 175 ng/mL
  asciminib Cmax, Median: 159 ng/mL
  asciminib Cmax, Range: 82.2 to 423 ng/mL
  asciminib Cmax, adjusted Gmean: 175 ng/mL
  asciminib T1/2, Range: 8.81 to 18.1 h
  asciminib Tmax, Median: 4.01 h
  asciminib Tmax, Range: 1.00 to 8.00 h
[2]; low-fat meal
  reduction in asciminib exposure (AUCinf; AUCinf and AUClast) compared with fasted conditions: 30%
[2]; low-fat meal, n=23
  asciminib AUCinf, Gmean: 4130 ng·h/mL
  asciminib AUCinf, Median: 4300 ng·h/mL
  asciminib AUCinf, adjusted Gmean: 4080 ng·h/mL
  asciminib AUClast, Gmean: 4060 ng·h/mL
  asciminib AUClast, Median: 4270 ng·h/mL
  asciminib AUClast, adjusted Gmean: 4010 ng·h/mL
  asciminib Cmax, Gmean: 363 ng/mL
  asciminib Cmax, Median: 365 ng/mL
  asciminib Cmax, Range: 172 to 709 ng/mL
  asciminib Cmax, adjusted Gmean: 359 ng/mL
  asciminib T1/2, Range: 9.70 to 17.7 h
  asciminib Tmax, Median: 3.00 h
  asciminib Tmax, Range: 0.997 to 5.00 h
[3]
  maximum tolerated dose (not reached): > 200 mg twice daily
Clinical [4]
  half-life: 13.5 h
Clinical [5]
  clearance: 185 mL/min
[6]; [8]
  dissolution: 82.3%
  flux rate (permeation through an artificial lipid membrane): 2.66 µg/min
[6]; [9]
  dissolution: 93.1%
  flux rate (permeation through an artificial lipid membrane): 1.45 µg/min
[6]; [10]
  dissolution: 94.2%
  flux rate (permeation through an artificial lipid membrane): 0.44 µg/min
[7]; high-fat meal
  decreased asciminib exposure compared with the fasted state: ~65% and 63-64%
[7]; low-fat meal
  decreased asciminib exposure compared with the fasted state: ~30% and 30-31%
